Measured values published in ChEMBL document CHEMBL1201862, “PubChem BioAssay data set” (2004).
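Cells were grown in 96-well plates and exposed to each compound for 48 hours at five concentrations; endpoints were interpolated linearly between bracketing concentrations, or set to the highest concentration if not reached. GI50 marks 50% less growth.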 Activity calls are given as the source filed them. Cut-off read from the data, not from the text of the source: active = GI50 up to about 1.1 µM and inactive = higher.

Experiments:
Experiment in all cases: DTP human tumour cell line panel, 48 h
786-0 = tested on: 786-0
BT-549 = tested on: BT-549
COLO 205 = tested on: COLO 205
HL-60 = tested on: HL-60
HOP-62 = tested on: HOP-62
IGROV-1 = tested on: IGROV-1
KM12 = tested on: KM12
LOX IMVI = tested on: LOX IMVI
M14 = tested on: M14
MCF7 = tested on: MCF7
NCI-H460 = tested on: NCI-H460
SK-MEL-28 = tested on: SK-MEL-28
SK-MEL-5 = tested on: SK-MEL-5
SW-620 = tested on: SW-620
T47D = tested on: T47D
UO-31 = tested on: UO-31
ACHN = tested on: ACHN
OVCAR-8 = tested on: OVCAR-8
RPMI-8226 = tested on: RPMI-8226

| Structure (SMILES) | GI50 (786-0) | GI50 (BT-549) | GI50 (COLO 205) | GI50 (HL-60) | GI50 (HOP-62) | GI50 (IGROV-1) | GI50 (KM12) | GI50 (LOX IMVI) | GI50 (M14) | GI50 (MCF7) | GI50 (NCI-H460) | GI50 (SK-MEL-28) | GI50 (SK-MEL-5) | GI50 (SW-620) | GI50 (T47D) | GI50 (UO-31) | GI50 (ACHN) | GI50 (OVCAR-8) | GI50 (RPMI-8226) |
| --- | --- | --- | --- | --- | --- | --- | --- | --- | --- | --- | --- | --- | --- | --- | --- | --- | --- | --- | --- |
| C/C(=N\Nc1nc2ccccc2n1C)c1ccc2ccccc2n1 | 1.99 µM (inactive) | > 22.3 µM (inactive) | 0.228 µM (active) | 0.774 µM (active) | 3.13 µM (inactive) | 0.016 µM (active) | 0.528 µM (active) | 1.64 µM (inactive) | 1.02 µM (active) | 0.406 µM (active) | 2.56 µM (inactive) | 5.09 µM (inactive) | 1.24 µM (inactive) | 0.35 µM (active) | < 0.01 µM (active) | 1.04 µM (active) | – | – | – |
| CC#CC(O)(C(=O)OC1CC(C)N(C)C(C)(C)C1)C1CCCC1 (configuration not stated) | > 100 µM (inactive) | > 100 µM (inactive) | > 100 µM (inactive) | > 100 µM (inactive) | > 100 µM (inactive) | > 100 µM (inactive) | > 100 µM (inactive) | > 100 µM (inactive) | > 100 µM (inactive) | > 100 µM (inactive) | – | > 100 µM (inactive) | > 100 µM (inactive) | > 100 µM (inactive) | > 100 µM (inactive) | > 100 µM (inactive) | > 100 µM (inactive) | > 100 µM (inactive) | > 100 µM (inactive) |
| Cc1cc(C)c(N[S+]([O-])c2ccc(Cl)cc2)c(C)c1 (configuration not stated) | > 100 µM (inactive) | > 100 µM (inactive) | > 100 µM (inactive) | > 100 µM (inactive) | > 100 µM (inactive) | – | > 100 µM (inactive) | – | > 100 µM (inactive) | > 100 µM (inactive) | > 100 µM (inactive) | > 100 µM (inactive) | – | > 100 µM (inactive) | > 100 µM (inactive) | > 100 µM (inactive) | > 100 µM (inactive) | > 100 µM (inactive) | > 100 µM (inactive) |
| CSC1=NC(C(N)=O)C(N)N1C (configuration not stated) | > 100 µM (inactive) | > 100 µM (inactive) | > 100 µM (inactive) | > 100 µM (inactive) | > 100 µM (inactive) | > 100 µM (inactive) | > 100 µM (inactive) | > 100 µM (inactive) | > 100 µM (inactive) | – | > 100 µM (inactive) | > 100 µM (inactive) | > 100 µM (inactive) | > 100 µM (inactive) | > 100 µM (inactive) | > 100 µM (inactive) | > 100 µM (inactive) | > 100 µM (inactive) | > 100 µM (inactive) |
| O=C(COc1ccc(Cl)c(Cl)c1)Nc1ccc[n+](Cc2ccc(S(=O)(=O)F)c(Cl)c2)c1 | > 100 µM (inactive) | > 100 µM (inactive) | > 100 µM (inactive) | > 100 µM (inactive) | > 100 µM (inactive) | > 100 µM (inactive) | > 100 µM (inactive) | – | > 100 µM (inactive) | > 100 µM (inactive) | > 100 µM (inactive) | > 100 µM (inactive) | > 100 µM (inactive) | > 100 µM (inactive) | > 100 µM (inactive) | > 100 µM (inactive) | > 100 µM (inactive) | > 100 µM (inactive) | 1.02 µM (active) |
| O=C(NNS(=O)(=O)c1ccccc1)c1csc(NC(=S)NC2CCCCC2)n1 | 15.4 µM (inactive) | 25.4 µM (inactive) | 19.3 µM (inactive) | 69.5 µM (inactive) | 58.3 µM (inactive) | 26.5 µM (inactive) | 36.3 µM (inactive) | 17.1 µM (inactive) | 39.2 µM (inactive) | 41 µM (inactive) | – | – | 14.4 µM (inactive) | 25 µM (inactive) | 18.7 µM (inactive) | 23.9 µM (inactive) | 33.5 µM (inactive) | 33.5 µM (inactive) | 44.2 µM (inactive) |
| Cc1c(CN2CCN(C)CC2)c(CN2CCN(C)CC2)c(C)n1-c1ccc(Cl)cc1 | 16.9 µM (inactive) | 45 µM (inactive) | 20.4 µM (inactive) | – | 35.4 µM (inactive) | 31.2 µM (inactive) | 34 µM (inactive) | – | 14.6 µM (inactive) | 39.5 µM (inactive) | 50.7 µM (inactive) | 19.5 µM (inactive) | 16.8 µM (inactive) | 54.2 µM (inactive) | 19.2 µM (inactive) | 26.9 µM (inactive) | 96.8 µM (inactive) | 19.9 µM (inactive) | 47.2 µM (inactive) |
| O=C(/C=C/c1c[nH]c2ccccc12)c1ccccc1O | 12.5 µM (inactive) | 12.4 µM (inactive) | – | 13.6 µM (inactive) | 14.3 µM (inactive) | 3.83 µM (inactive) | 11.3 µM (inactive) | 5.08 µM (inactive) | 14 µM (inactive) | 3.1 µM (inactive) | 13.2 µM (inactive) | 19.2 µM (inactive) | – | 18.5 µM (inactive) | 1.75 µM (inactive) | 2.82 µM (inactive) | 12.6 µM (inactive) | 12.9 µM (inactive) | 9.27 µM (inactive) |
| Nc1nc(N)c2ncn(Cc3ccccc3CCl)c2n1 | > 100 µM (inactive) | > 100 µM (inactive) | > 100 µM (inactive) | 0.115 µM (active) | > 100 µM (inactive) | > 100 µM (inactive) | > 100 µM (inactive) | – | > 100 µM (inactive) | > 100 µM (inactive) | > 100 µM (inactive) | > 100 µM (inactive) | 51.1 µM (inactive) | > 100 µM (inactive) | > 100 µM (inactive) | > 100 µM (inactive) | > 100 µM (inactive) | > 100 µM (inactive) | > 100 µM (inactive) |
| CCC(=O)O[C@H]1CC[C@H]2[C@@H]3CCC4=C/C(=N/NC(=O)c5cccc6c(=O)c7ccccc7[nH]c56)CC[C@]4(C)[C@H]3CC[C@]12C | 5.11 µM (inactive) | > 25 µM (inactive) | > 25 µM (inactive) | – | > 25 µM (inactive) | > 25 µM (inactive) | > 25 µM (inactive) | 10.1 µM (inactive) | > 25 µM (inactive) | > 25 µM (inactive) | > 25 µM (inactive) | > 25 µM (inactive) | > 25 µM (inactive) | > 25 µM (inactive) | > 25 µM (inactive) | > 25 µM (inactive) | > 25 µM (inactive) | > 25 µM (inactive) | > 25 µM (inactive) |
| Cc1cn(CCOCCOC(=O)NC(CCCNC(=N)N)C(=O)O)c(=O)[nH]c1=O (configuration not stated) | > 100 µM (inactive) | > 100 µM (inactive) | > 100 µM (inactive) | > 100 µM (inactive) | > 100 µM (inactive) | > 100 µM (inactive) | > 100 µM (inactive) | > 100 µM (inactive) | > 100 µM (inactive) | > 100 µM (inactive) | > 100 µM (inactive) | > 100 µM (inactive) | – | > 100 µM (inactive) | > 100 µM (inactive) | > 100 µM (inactive) | > 100 µM (inactive) | – | > 100 µM (inactive) |
| Cc1cc2c(cc1C)C(=O)C1(C2)Cc2cc3c(cc2C1=O)CCC3 (configuration not stated) | > 100 µM (inactive) | > 100 µM (inactive) | > 100 µM (inactive) | > 100 µM (inactive) | – | > 100 µM (inactive) | > 100 µM (inactive) | – | 44.1 µM (inactive) | > 100 µM (inactive) | > 100 µM (inactive) | > 100 µM (inactive) | > 100 µM (inactive) | > 100 µM (inactive) | > 100 µM (inactive) | > 100 µM (inactive) | > 100 µM (inactive) | > 100 µM (inactive) | > 100 µM (inactive) |
| COCN1C(=O)[C@@H]2CCCN2C(=O)c2cc([N+](=O)[O-])ccc21 | > 100 µM (inactive) | 62.5 µM (inactive) | 81.3 µM (inactive) | – | 41.1 µM (inactive) | 35.5 µM (inactive) | > 100 µM (inactive) | 26.3 µM (inactive) | > 100 µM (inactive) | 46.3 µM (inactive) | – | > 100 µM (inactive) | 70.1 µM (inactive) | 65.8 µM (inactive) | 45.7 µM (inactive) | 35.5 µM (inactive) | 53.1 µM (inactive) | > 100 µM (inactive) | – |
| CCOC(=O)CNc1c(OCc2ccccc2)c(=O)c1=O | > 100 µM (inactive) | > 100 µM (inactive) | > 100 µM (inactive) | – | > 100 µM (inactive) | > 100 µM (inactive) | > 100 µM (inactive) | – | > 100 µM (inactive) | > 100 µM (inactive) | – | > 100 µM (inactive) | > 100 µM (inactive) | > 100 µM (inactive) | > 100 µM (inactive) | > 100 µM (inactive) | > 100 µM (inactive) | > 100 µM (inactive) | > 100 µM (inactive) |
| Nc1ccc2nc(-c3cccc(Cl)c3)cc(O)c2c1 | 4.24 µM (inactive) | 5.45 µM (inactive) | 4.81 µM (inactive) | – | 5.87 µM (inactive) | 29.3 µM (inactive) | 4.23 µM (inactive) | – | 5.56 µM (inactive) | 3.46 µM (inactive) | 4.39 µM (inactive) | 7.91 µM (inactive) | 3.58 µM (inactive) | 3.55 µM (inactive) | 5.96 µM (inactive) | – | 5.93 µM (inactive) | 18 µM (inactive) | – |
| O=C(O)c1cc2ccccc2oc1=O [COUMARIN-3-CARBOXYLIC ACID] | > 100 µM (inactive) | > 100 µM (inactive) | > 100 µM (inactive) | > 100 µM (inactive) | > 100 µM (inactive) | > 100 µM (inactive) | > 100 µM (inactive) | > 100 µM (inactive) | > 100 µM (inactive) | > 100 µM (inactive) | > 100 µM (inactive) | > 100 µM (inactive) | > 100 µM (inactive) | > 100 µM (inactive) | – | > 100 µM (inactive) | > 100 µM (inactive) | > 100 µM (inactive) | > 100 µM (inactive) |
